What was measured:
Assay type in all cases: cell-based
Details in all cases: conolidine 10 μM
ADRA2BC = target: T1, ADRA2BC (Homo sapiens, UniProt P18825); assay: GPCR β-arrestin screening (PathHunter gpcrMAX/orphanMAX), ADRA2BC
T1 sequence (P18825 1-462): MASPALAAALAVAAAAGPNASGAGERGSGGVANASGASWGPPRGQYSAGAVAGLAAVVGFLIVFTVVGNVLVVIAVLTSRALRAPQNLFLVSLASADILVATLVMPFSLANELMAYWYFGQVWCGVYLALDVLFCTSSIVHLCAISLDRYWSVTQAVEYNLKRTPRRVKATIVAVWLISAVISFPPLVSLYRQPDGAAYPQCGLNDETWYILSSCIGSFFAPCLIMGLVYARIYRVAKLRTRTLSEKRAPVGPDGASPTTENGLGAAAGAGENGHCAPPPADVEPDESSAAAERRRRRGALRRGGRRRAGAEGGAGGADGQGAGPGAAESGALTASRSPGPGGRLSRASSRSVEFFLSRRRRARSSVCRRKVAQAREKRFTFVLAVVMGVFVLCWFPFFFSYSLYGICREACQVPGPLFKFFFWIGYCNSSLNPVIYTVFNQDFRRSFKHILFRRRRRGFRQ
Method: (§1) In an effort to identify the target of conolidine among the GPCR family, we undertook a large scale screening program using a β-arrestin recruitment assay based on β-galactosidase complementation (PathHunter, DiscoverX). Over 240 receptors were tested for their ability to be activated or inhibited by conolidine (10 μM) (data not shown). These included 168 GPCRs from the gpcrMAX panel, covering over 60 distinct receptor families such as adrenergic, dopamine, P2Y or serotonin and 74 GPCRs from the orphanMAX panel.

HRH2 = HRH2 (Homo sapiens, UniProt P25021); assay: GPCR β-arrestin screening (PathHunter gpcrMAX/orphanMAX), HRH2
Method: as §1

[1] = target: T2, Mast cells G protein-coupled receptor-X2 (MRGPRX2) (Homo sapiens, UniProt Q96LB1); assay: GPCR β-arrestin screening (PathHunter gpcrMAX/orphanMAX), MRGPRX2
T2 sequence (Q96LB1 1-330): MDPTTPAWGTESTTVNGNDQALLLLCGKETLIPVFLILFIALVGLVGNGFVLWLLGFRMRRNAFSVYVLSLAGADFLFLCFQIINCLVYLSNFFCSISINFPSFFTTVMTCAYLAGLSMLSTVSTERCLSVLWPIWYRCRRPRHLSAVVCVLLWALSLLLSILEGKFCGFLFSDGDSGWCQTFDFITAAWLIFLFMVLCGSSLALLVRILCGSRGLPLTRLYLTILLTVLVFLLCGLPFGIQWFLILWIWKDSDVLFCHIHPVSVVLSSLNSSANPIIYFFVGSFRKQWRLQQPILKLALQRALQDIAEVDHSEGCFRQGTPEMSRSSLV
Method: as §1

[2] = target: T3, melatonin receptor 1B (MTNR1B) (Homo sapiens, UniProt P49286); assay: GPCR β-arrestin screening (PathHunter gpcrMAX/orphanMAX), MTNR1B
T3 sequence (P49286 1-362): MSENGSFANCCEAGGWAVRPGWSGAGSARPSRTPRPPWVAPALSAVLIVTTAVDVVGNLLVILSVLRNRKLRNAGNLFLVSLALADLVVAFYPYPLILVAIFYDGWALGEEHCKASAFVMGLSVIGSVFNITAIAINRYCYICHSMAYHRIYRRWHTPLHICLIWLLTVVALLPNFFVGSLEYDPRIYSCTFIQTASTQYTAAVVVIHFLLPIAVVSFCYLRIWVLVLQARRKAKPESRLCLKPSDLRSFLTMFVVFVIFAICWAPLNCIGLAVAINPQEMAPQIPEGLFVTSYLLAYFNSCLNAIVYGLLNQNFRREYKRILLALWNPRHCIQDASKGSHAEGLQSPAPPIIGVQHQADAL
Method: as §1

HRH2, sequence (P25021 whole entry): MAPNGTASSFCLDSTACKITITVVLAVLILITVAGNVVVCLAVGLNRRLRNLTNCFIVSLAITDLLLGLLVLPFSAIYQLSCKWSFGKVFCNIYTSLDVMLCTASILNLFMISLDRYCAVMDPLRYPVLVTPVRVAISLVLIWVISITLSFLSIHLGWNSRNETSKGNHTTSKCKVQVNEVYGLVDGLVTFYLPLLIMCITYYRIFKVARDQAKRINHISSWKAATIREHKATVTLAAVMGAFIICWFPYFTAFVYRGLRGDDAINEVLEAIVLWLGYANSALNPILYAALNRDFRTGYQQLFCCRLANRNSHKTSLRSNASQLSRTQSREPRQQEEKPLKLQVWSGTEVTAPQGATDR

C/C=C1/CN2CC[C@H]1C(=O)c1[nH]c3ccccc3c1C2 [WW-1, (4E,5R)-4-ethylidene-1,4,5,7-tetrahydro-2,5-ethanoazocino[4,3-b]indol-6(3H)-one] was tested, and the “activity towards ADRA2BC in GPCR screening” value (ADRA2BC) was “No activity was detected”, the “activity towards HRH2 in GPCR screening” value (HRH2) was “No activity was detected” and the “activation of MRGPRX2 in GPCR screening” value [1] was “only partially activated”. The “activation of MTNR1B in GPCR screening” value [2] was “only partially activated”.

Reference: US20240059688A1, “CONOLIDINE ANALOGUES AS SELECTIVE ACKR3 MODULATORS FOR THE TREATMENT OF CANCER” (Luxembourg Institute of Health (LIH), priority 2020, published 2024)
